Data reported in patent publication US20250228856A1, “USE OF HEMATOPOIETIC CELL KINASE (HCK) INHIBITOR IN PREPARATION OF DRUG FOR TREATING PULMONARY FIBROSIS” (Institute of Basic Medical Sciences, CAMS, priority 2024, published 2025).

Tests used:
Type in all cases: in vivo, C57BL/6J mice
IPF mice [1] = assay: Transcription levels of inflammatory factors in lung tissue of IPF mice (qPCR); settings: BLM IPF mice, 30 mg/kg i.p., 3 weeks
Method: (§1) Male C57BL/6J mice (aged 8 weeks and weighing 25-30 g) were selected and housed in an SPF grade laboratory animal room, and the model of IPF was constructed by one-time intratracheal instillation of bleomycin (BLM); the mice were divided into four groups (n=9): • 1) PBS group+vehicle group: PBS (the volume consistent with the subsequent BLM infusion volume) was given by tracheal instillation; RK-20449 solvent PBS was injected intraperitoneally; • 2) PBS+RK-20449 group: intratracheal instillation of PBS (volume consistent with subsequent BLM infusion volume); intraperitoneal injection of RK-20449 (30 mg/kg, once a day, 6 d a week, for 3 weeks); • 3) BLM+vehicle group: BLM solution (2 U/kg) was given tracheal infusion; RK-20449 solvent PBS was injected intraperitoneally; and • 4) BLM+RK-20449 group: BLM solution (2 U/kg) was given tracheal infusion, and RK-20449 (30 mg/kg, once a day, 6 d a week, for 3 weeks) was injected intraperitoneally.
(§2) All mice were sacrificed after 21 d of administration, and the corresponding samples were collected for detection.
(§3) Lung tissue RNA of all mice was extracted; cDNA was obtained by using a reverse transcription kit (KR103, Tiangen Biotechnology, Beijing, China); qPCR was conducted by using a SYBR Green I Q-PCR Kit (TransGen Biotech, Beijing China); data collection and analysis were conducted by Bio-Rad IQ5 system.

Hck = Hck transcription level in lung tissue of IPF mice (qPCR); settings: BLM (2 U/kg) IPF mice; RK-20449 30 mg/kg i.p. once a day, 6 d a week, 3 weeks; FIG. 1
Method: as §1, §2, §3

IPF mice [2] = assay: ELISA of inflammatory factors in BALF of IPF mice; settings: BLM IPF mice, 30 mg/kg i.p., 3 weeks
Method: as §1, §2
Concentrations of inflammatory factors IL-1β and IL-6 in mouse BALF were detected by using ELISA kits.

IPF mice [3] = assay: HYP content and degree of lesions in lung tissue of IPF mice; settings: BLM IPF mice, 30 mg/kg i.p., 3 weeks
Method: as §1, §2
30 mg of mouse lung tissue was detected using an HYP kit (NBP2-59747, Novus Biologicals, Littleton, CO, USA).

IPF mice [4] = assay: Body weight and survival rate of IPF mice; settings: BLM IPF mice, 30 mg/kg i.p., 3 weeks
Method: as §1, §2
The mice in each group were weighed, and the death of the mice was observed and counted.

IPF mice [5] = assay: Transcription levels of fibrosis factors in lung tissue of IPF mice (qPCR); settings: BLM IPF mice, 30 mg/kg i.p., 3 weeks
Method: as §1, §2, §3

IPF mice [6] = assay: Pulmonary function test in IPF mice; settings: BLM IPF mice, 30 mg/kg i.p., 3 weeks
Method: as §1, §2
Anesthetized mice were fixed on an experimental table, and mouse lung function was detected by a pulmonary function testing system (DSI Buxco, USA). Before experiment, the mouse was anesthetized by intraperitoneal injection of 0.4 mL/100 g 2% pentobarbital, tracheotomy was performed, a trachea cannula was inserted, and a ventilator was connected. Next, FRC, PV, FV, and RC were automatically tested by a PET system. Indicators closely related to lung function changes in pulmonary fibrosis for statistical analysis, including lung volume indicators such as IC, and pulmonary ventilation function tests such as RI, Cdyn, and Cchord.

SMILES: CN1CCN(C2CCC(n3cc(-c4ccc(Oc5ccccc5)cc4)c4c(N)ncnc43)CC2)CC1 (stereo not shown) [RK-20449]
- transcription level of Il-1β (IPF mice [1]; FIG. 3A): decreased
- transcription level of Il-6 (IPF mice [1]; FIG. 3B): decreased
- transcription level of Tnf-α (IPF mice [1]; FIG. 3C): decreased
- transcription level of Hck in the lung tissue (Hck): effectively inhibit
- concentration of IL-1β in the alveolar lavage fluid (IPF mice [2]; FIG. 3D): decreased
- concentration of IL-6 in the alveolar lavage fluid (IPF mice [2]; FIG. 3E): decreased
- degree of lesions (IPF mice [3]): alleviated
- hydroxyproline content in lung tissue (IPF mice [3]; lung tissue, FIG. 4C): decreased
- weight loss of IPF mice (IPF mice [4]; FIG. 2A): alleviated
- survival rate (IPF mice [4]; FIG. 2B): increased to a certain extent
- transcription level of Col-I (IPF mice [5]; FIG. 4A): decreased
- transcription level of Fn-1 (IPF mice [5]; FIG. 4B): decreased
- lung function: inspiratory resistance (RI) (IPF mice [6]; FIG. 2C): improved significantly
- lung function: dynamic compliance (Cdyn) (IPF mice [6]; FIG. 2D): improved significantly
- lung function: quasi-static compliance (Cchord) (IPF mice [6]; FIG. 2E): improved significantly
- lung function: inspiratory capacity (IC) (IPF mice [6]; FIG. 2F): improved significantly
